Test results from patent US4521408A, “Antibiotics-859A and production thereof” (priority 1982, dated 1985).

Legend:
Assay type in all cases: cell-based
[1] = system: Pseudomonas clinical isolate B189; experiment: Comparative lethality in agar dilution test, isolate B189
Protocol: (§1) 859A2, carbenicillin, and gentamicin were compared in agar dilution, surface-inoculated assays at the minimum bactericidal concentration (MBC), and at 1/2 and 1/4 of the MBC, vs four clinical isolates of Pseudomonas.
(§2) Clinical isolates were supplied on nutrient agar-yeast extract slants. Strains B145 and B184 were reported as non-lactamase-containing strains whereas strains B126 and B189 contained lactamase.
(§3) A loopful of cells of each culture was transferred to 10 ml nutrient broth-yeast (NBY) extract and incubated for 16 hours at 37° C. on the shaker. The inocula were adjusted to O.D.=0.22 at 660 nm with NBY and further diluted with NBY to 1:250,000. One tenth (0.1) ml of the diluted cell suspension was added to plates containing 10 ml of Brain Heart Infusion Agar and spread uniformly over the surface with a sterile glass "hockey stick". Stock solutions of antibiotics at 10 mg/ml were added to 45° C. agar in appropriate amounts. […] After overnight incubation of plates at 37° C., a visual count of colonies was made.

[2] = system: Pseudomonas clinical isolate B145; experiment: Comparative lethality in agar dilution test, isolate B145
Protocol: as §1, §2, §3

[3] = system: Pseudomonas clinical isolate B126; experiment: Comparative lethality in agar dilution test, isolate B126
Protocol: as §1, §2, §3

[4] = system: Pseudomonas clinical isolate B184; experiment: Comparative lethality in agar dilution test, isolate B184
Protocol: as §1, §2, §3

CC1(C)S[C@@H]2[C@H](NC(=O)C(C(=O)O)c3ccccc3)C(=O)N2[C@H]1C(=O)O (stereo partly drawn) [Carbenicillin, carbenicillin]
# of Colonies ([1]; 31.3 μg/ml): 333 | # of Colonies ([1]; 62.5 μg/ml): 263 | # of Colonies ([1]; 125 μg/ml): 0 | # of Colonies ([2]; 15.7 μg/ml): 368 | # of Colonies ([2]; 31.3 μg/ml): 335 | # of Colonies ([2]; 62.5 μg/ml): 0 | # of Colonies ([3]; 125 μg/ml): 68 | # of Colonies ([3]; 250 μg/ml): 28 | # of Colonies ([3]; 500 μg/ml): 0 | # of Colonies ([4]; 15.7 μg/ml): 75 | # of Colonies ([4]; 31.3 μg/ml): 100 | # of Colonies ([4]; 62.5 μg/ml): 0

gentamicin
# of Colonies ([1]; 0.78 μg/ml): 278 | # of Colonies ([1]; 1.56 μg/ml): 53 | # of Colonies ([1]; 3.12 μg/ml): 0 | # of Colonies ([2]; 12.5 μg/ml): 233 | # of Colonies ([2]; 25 μg/ml): 121 | # of Colonies ([2]; 50 μg/ml): 0 | # of Colonies ([3]; 0.39 μg/ml): 49 | # of Colonies ([3]; 0.78 μg/ml): 7 | # of Colonies ([3]; 1.56 μg/ml): 0 | # of Colonies ([4]; 0.39 μg/ml): 79 | # of Colonies ([4]; 0.79 μg/ml): 19 | # of Colonies ([4]; 1.56 μg/ml): 0
